Assay results taken from US20040029886A1, “Dihalopropene compounds, processes for their preparation, compositions comprising them and their use as pesticides” (priority 2001, published 2004).

Tests used:
Type in all cases: in vivo
Design in all cases: key: compounds are considered to be active when, at a concentration of 500 ppm or less, their action on the harmful organisms is 50% or more
[1] = tested on: L2 larvae of the Egyptian cotton leaf worm (Spodoptera littoralis); test: Example D: L2 larvae of Egyptian cotton leaf worm, Petri dish with culture medium; details: 500 ppm or less, after 6 days
Description: (§1) In Examples A to L below, compounds are considered to be active when, at a concentration of 500 ppm or less, their action on the harmful organisms is 50% or more.
A Petri dish whose bottom was covered with filter paper and which contained about 5 ml of culture medium was prepared. Five L2 larvae of the Egyptian cotton leaf worm (Spodoptera littoralis) were counted into small beakers. 200 μl of an aqueous solution of the formulated preparation to be examined were pipetted into the beaker. The treated larvae were then poured into the Petri dish, and a further 200 μl of the aqueous solution were distributed over the culture medium. The Petri dish was closed and then stored at about 25° C. in a climatized chamber. After 6 days of storage, the effect of the preparation on the larvae (mortality) was determined. The following examples were active: Nos. 27, 28, 29, 39, 43, 45, 59.

[2] = tested on: L1 larvae of the codling moth (Carpocapsa pomonella); test: Example J: codling moth L1 larvae on treated culture medium; details: 500 ppm or less, after 14 days
Description: as §1
Culture medium was mixed with an aqueous solution of the formulated preparation to be examined and populated with 10 L1 larvae of the codling moth (Carpocapsa pomonella). After 14 days of storage at about 23° C., the effect of the preparation on the larvae (mortality) was determined. The following examples were active: Nos. 28, 59.

[3] = tested on: L2 larvae of the sugar beet armyworm (Spodoptera exigua); test: Example I: sugar beet armyworm L2 larvae on sprayed cotton leaves; details: 500 ppm or less, after 4 days
Description: as §1
Cotton plants were sprayed with an aqueous solution of the formulated preparation to be examined. After drying, leaves were cut off, placed into a Petri dish and populated with 5 L2 larvae of the sugar beet armyworm (Spodoptera exigua). After 4 days of storage at about 23° C., the effect of the preparation on the larvae (mortality) was determined. The following examples were active: Nos. 27, 28, 45, 59.

[4] = tested on: larvae of the diamondback moth (Plutella xylostella); test: Example L: diamondback moth larvae on sprayed cabbage leaf; details: 500 ppm or less, after 4 days
Description: as §1
A cabbage leaf was sprayed with an aqueous solution of the formulated preparation to be examined. After drying, the treated leaf was populated with larvae of the diamondback moth (Plutella xylostella). After 4 days of storage at about 25° C., the effect of the preparation on the larvae (mortality) was determined. The following examples were active: Nos. 27, 28, 45.

[5] = tested on: eggs of the American tobacco budworm (Heliothis virescens); test: Example C: eggs of American tobacco budworm, Petri dish with culture medium; details: 500 ppm or less; eggs dipped 5 seconds, 200 μl on culture medium; after 6 days
Description: as §1
A Petri dish whose bottom was covered with filter paper and which contained about 5 ml of culture medium was prepared. Pieces of filter paper with about 30, one-day-old eggs of the American tobacco budworm (Heliothis virescens) were dipped for 5 seconds into an aqueous solution of the formulated preparation to be examined and subsequently placed in a Petri dish. A further 200 μl of the aqueous solution were spread over the culture medium. The Petri dish was closed and then stored at about 25° C. in a climatized chamber. After 6 days of storage, the effect of the preparation on the eggs and any larvae which may have hatched from these (mortality) was determined. The following examples were active: Nos. 6, 27, 28, 29, 31, 35, 39, 43, 45, 59, 97, 226, 227, 228, 229, 351, 356, 357, 592, 593, 595, 949, 1001, 1126, 1129, 1132.

CC(=NO)c1cc(OCC=C(Cl)Cl)cc(Cl)c1OCCCOc1ccc(C(F)(F)F)cn1 [compound 28]
active: effect of the preparation on the larvae (mortality) [1] | effect of the preparation on the larvae (mortality) [2] | effect of the preparation on the larvae (mortality) [3] | effect of the preparation on the larvae (mortality) [4] | effect of the preparation on the eggs and any larvae hatched (mortality) [5]
